± gives the standard deviation of the averaged measurements.
Columns and labels:
Test in all cases: normalised growth rate inhibition (GR value) relative to DMSO control (GR (1 = untreated growth, 0 = cytostasis, <0 = cytotoxic)); higher = less growth inhibition
Conditions in all cases: 72 h
[1] = test system: HS578T
Protocol: (§1)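 Breast cancer cell lines (BT-20, Hs 578T, MCF 10A, MCF7, MDA-MB-231, SK-BR-3) were plated in 384-well plates and treated 24 h later with drugs at six concentrations (0.04-10 µM). Viable cells were counted by Hoechst/dead-cell-stain imaging at 0 and 72 h. Counts were normalised to DMSO controls on the same plate to give the relative cell count and the growth-rate inhibition (GR) value; technical plate triplicates were averaged for each biological replicate.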

[2] = test system: MCF10A
Protocol: as §1

[3] = test system: MCF7
Protocol: as §1

[4] = test system: MDAMB231
Protocol: as §1

[5] = test system: SKBR3
Protocol: as §1

[6] = test system: BT20
Protocol: as §1

| Compound | normalised growth rate inhibition ([1]; 0.04 µM) | normalised growth rate inhibition ([1]; 0.12 µM) | normalised growth rate inhibition ([1]; 0.37 µM) | normalised growth rate inhibition ([1]; 1.11 µM) | normalised growth rate inhibition ([1]; 3.33 µM) | normalised growth rate inhibition ([1]; 10 µM) | normalised growth rate inhibition ([2]; 0.04 µM) | normalised growth rate inhibition ([2]; 0.12 µM) | normalised growth rate inhibition ([2]; 0.37 µM) | normalised growth rate inhibition ([2]; 1.11 µM) | normalised growth rate inhibition ([2]; 3.33 µM) | normalised growth rate inhibition ([2]; 10 µM) | normalised growth rate inhibition ([3]; 0.04 µM) | normalised growth rate inhibition ([3]; 0.12 µM) | normalised growth rate inhibition ([3]; 0.37 µM) | normalised growth rate inhibition ([3]; 1.11 µM) | normalised growth rate inhibition ([3]; 3.33 µM) | normalised growth rate inhibition ([3]; 10 µM) | normalised growth rate inhibition ([4]; 0.04 µM) | normalised growth rate inhibition ([4]; 0.12 µM) | normalised growth rate inhibition ([4]; 0.37 µM) | normalised growth rate inhibition ([4]; 1.11 µM) | normalised growth rate inhibition ([4]; 3.33 µM) | normalised growth rate inhibition ([4]; 10 µM) | normalised growth rate inhibition ([5]; 0.04 µM) | normalised growth rate inhibition ([5]; 0.12 µM) | normalised growth rate inhibition ([5]; 0.37 µM) | normalised growth rate inhibition ([5]; 1.11 µM) | normalised growth rate inhibition ([5]; 3.33 µM) | normalised growth rate inhibition ([5]; 10 µM) | normalised growth rate inhibition ([6]; 0.04 µM) | normalised growth rate inhibition ([6]; 0.12 µM) | normalised growth rate inhibition ([6]; 0.37 µM) | normalised growth rate inhibition ([6]; 1.11 µM) | normalised growth rate inhibition ([6]; 3.33 µM) | normalised growth rate inhibition ([6]; 10 µM) |
| --- | --- | --- | --- | --- | --- | --- | --- | --- | --- | --- | --- | --- | --- | --- | --- | --- | --- | --- | --- | --- | --- | --- | --- | --- | --- | --- | --- | --- | --- | --- | --- | --- | --- | --- | --- | --- |
| N#CCNC(=O)c1ccc(-c2ccnc(Nc3ccc(N4CCOCC4)cc3)n2)cc1 [CYT387] | 0.931 ± 0.031 | 0.851 ± 0.022 | 0.762 ± 0.024 | 0.638 ± 0.043 | 0.447 ± 0.12 | 0.046 ± 0.14 | 0.959 ± 0.023 | 0.924 ± 0.032 | 0.868 ± 0.038 | 0.799 ± 0.047 | 0.649 ± 0.1 | 0.185 ± 0.11 | 0.912 ± 0.024 | 0.896 ± 0.098 | 0.83 ± 0.092 | 0.628 ± 0.083 | 0.332 ± 0.2 | 0.0654 ± 0.039 | 0.859 ± 0.059 | 0.777 ± 0.053 | 0.678 ± 0.087 | 0.527 ± 0.18 | 0.36 ± 0.28 | -0.112 ± 0.2 | 0.841 ± 0.15 | 0.8 ± 0.16 | 0.789 ± 0.12 | 0.687 ± 0.12 | 0.509 ± 0.11 | 0.0674 ± 0.037 | 0.926 ± 0.072 | 0.871 ± 0.038 | 0.837 ± 0.083 | 0.748 ± 0.046 | 0.576 ± 0.073 | 0.0633 ± 0.1 |
| CS(=O)(=O)N1CCN(Cc2cc3nc(-c4cccc5[nH]ncc45)nc(N4CCOCC4)c3s2)CC1 [GDC-0941] | 0.779 ± 0.032 | 0.675 ± 0.031 | 0.568 ± 0.088 | 0.466 ± 0.1 | 0.408 ± 0.096 | 0.263 ± 0.077 | 0.869 ± 0.15 | 0.792 ± 0.18 | 0.625 ± 0.21 | 0.427 ± 0.14 | 0.289 ± 0.087 | 0.102 ± 0.038 | 0.331 ± 0.1 | 0.176 ± 0.079 | 0.0196 ± 0.047 | -0.00416 ± 0.0071 | -0.0358 ± 0.013 | -0.081 ± 0.069 | 0.784 ± 0.092 | 0.797 ± 0.069 | 0.715 ± 0.011 | 0.676 ± 0.056 | 0.644 ± 0.053 | 0.372 ± 0.1 | 0.384 ± 0.11 | 0.283 ± 0.088 | 0.131 ± 0.099 | 0.0555 ± 0.16 | 0.00405 ± 0.15 | -0.0817 ± 0.19 | 0.717 ± 0.053 | 0.689 ± 0.067 | 0.502 ± 0.17 | 0.258 ± 0.19 | 0.0678 ± 0.098 | -0.056 ± 0.052 |
| COc1cc(N2CCC(C(N)=O)CC2)ccc1Nc1nc(N)c(Cl)c(Nc2ccccc2S(=O)(=O)C(C)C)n1 [HG-5-88-01] | 0.942 ± 0.016 | 0.933 ± 0.04 | 0.885 ± 0.015 | 0.8637 ± 0.0081 | 0.839 ± 0.022 | 0.664 ± 0.034 | 0.933 ± 0.075 | 0.879 ± 0.09 | 0.766 ± 0.14 | 0.709 ± 0.16 | 0.627 ± 0.2 | 0.452 ± 0.11 | 0.635 ± 0.082 | 0.602 ± 0.04 | 0.493 ± 0.081 | 0.364 ± 0.071 | 0.208 ± 0.11 | -0.0672 ± 0.054 | 0.794 ± 0.12 | 0.861 ± 0.12 | 0.791 ± 0.11 | 0.796 ± 0.14 | 0.783 ± 0.17 | 0.451 ± 0.089 | 0.548 ± 0.13 | 0.691 ± 0.1 | 0.678 ± 0.073 | 0.699 ± 0.08 | 0.641 ± 0.17 | 0.133 ± 0.15 | 0.747 ± 0.087 | 0.921 ± 0.066 | 0.937 ± 0.039 | 0.887 ± 0.022 | 0.846 ± 0.048 | 0.404 ± 0.013 |
